From patent US20120021079A1, “Garcinia Mangostana L. and Iridoid Based Formulations” (priority 2010, published 2012)

Assays:
[1] = tested on: E. coli PQ37; experiment: Anti-genotoxicity test (SOS-chromotest with 4NQO, Example Three); type: cell-based; conditions: for induction factor of 4NQO plus iridoid versus vehicle blank: 250 μg mL^−1 iridoid plus 1.25 μg mL^−1 4NQO; for Induction factor: 250 μg ml^−1 DAA or AA together with 1.25 μg ml^−1 4NQO, E. coli PQ37
Procedure: The primary DNA damage test was performed again, similar to the method described above. […] Induction factors were calculated in the same manner as described above.

[2] = Intra- and inter-day precision and stability assays of iridoids by HPLC-PDA; type: physicochemical; conditions: 3 consecutive days, HPLC sample solutions
Procedure: The limits of detection (LOD) and quantitation (LOQ) were defined as the lowest concentrations of analytes in a sample that can be detected and quantified. These LOD and LOQ limits were determined on the basis of signal-to-noise ratios (S/N) of 3:1 and 10:1, respectively. The working solutions of standards 1 and 2 for LOD and LOQ were prepared by diluting them sequentially. The intra- and inter-day precision assays, as well as stability tests were performed by following the method applied to the sample analysis for 3 consecutive days. Accuracy of the method (recovery) was assessed by the recovery percentage of iridoids 1 and 2 in the spiked samples. […] The recovery percentage was calculated using the ratio of concentration detected (actual) to those spiked (theoretical). Variation was evaluated by the relative standard deviation (RSD) of triplicate injections in the HPLC experiments.
The limits of detection (LOD) and quantitation (LOQ) were defined as the lowest concentrations of analytes in a sample that can be detected and quantified. These LOD and LOQ limits were determined on the basis of signal-to-noise ratios (S/N) of 3:1 and 10:1, respectively. […] Repeatability is the degree of agreement between results, when experimental conditions are maintained as constant as possible, and is expressed as the relative standard deviation (RSD) of replicates. […]

[3] = tested on: E. coli PQ37; type: cell-based; conditions: 250 ug mL^−1 iridoid plus 1.25 ug mL^−1 4NQO; blank = 1
Procedure: The SOS-chromotest in E. coli PQ37 was used to determine the potential for iridoids in noni fruit from French Polynesia to prevent primary DNA damage. […] Replicate samples were evaluated. […] Following incubation with the samples, 5-bromo-4-chloro-3-indolyl-β-D-galactopyranoside was added to the wells to detect β-galactosidase enzyme activity, which is induced during SOS repair of damaged DNA. The samples were again incubated for 90 minutes and the absorbances of the samples, blank and positive control were measured at 620 nm with a microplate reader. The β-galactosidase enzyme activity induction factor of each material was calculated by dividing the absorbance of the sample at 620 nm by that of the blank, while also correcting for cell viability.

CC(=O)OCC1=C[C@H](O)[C@@H]2C(C(=O)O)=CO[C@@H](O[C@@H]3O[C@H](CO)[C@@H](O)[C@H](O)[C@H]3O)[C@H]12 [AA, asperulosidic acid]
induction factor of 4NQO plus iridoid versus vehicle blank [1]: no statistical difference from that of the vehicle blank | Induction factor [1]: 1.06 ± 0.03 | stability during investigation period [2]: stable during investigation period

O=C(O)C1=CO[C@@H](O[C@@H]2O[C@H](CO)[C@@H](O)[C@H](O)[C@H]2O)[C@@H]2C(CO)=C[C@H](O)[C@H]12 [DAA, deacetylasperulosidic acid]
induction factor (mean±standard deviation) [3]: 0.98±0.02 | induction factor of 4NQO plus iridoid versus vehicle blank [1]: no statistical difference from that of the vehicle blank | Induction factor [1]: 1.08 ± 0.12 | stability during investigation period [2]: stable during investigation period
